Measured values taken from patent publication US8952150B2, “Prostaglandin transporter inhibitors and uses thereof” (Albert Einstein College of Medicine of Yeshiva University, priority 2009, dated 2015).

Target: rat PGT (Rattus norvegicus (Rat), UniProt Q00910)
Experiment: [3H]PGE2 uptake inhibition in MDCK cells stably transfected with rat PGT (percent inhibition and IC50)
Type: cell-based
Settings: for Inh (% of Ctl) 5 μM: 5 μM compound; for Inh (% of Ctl) 0.5 μM: 0.5 μM compound; for Inh (% of Ctl) 2.5 μM: 2.5 μM compound; for Inh (% of Ctl) 0.1 μM: 0.1 μM compound; for IC50: [3H]PGE2 uptake, MDCK cells stably transfected with rat PGT
Summary of the method: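 Rat PGT-transfected MDCK cells, on day 4 after seeding, took up [3H]PGE2 in Waymouth buffer at room temperature, with compound (EtOH stock diluted in buffer) added immediately before tracer. Intracellular radioactivity counted after lysis; percent inhibition versus vehicle, IC50 by fitting y=m1−m1*(m0/(m2+m0)).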

SMILES | Inh (% of Ctl) 1 μM (1 μM compound, inhibition of [3H]PGE2 uptake) | Inh (% of Ctl) 5 μM (inhibition of [3H]PGE2 uptake) | Inh (% of Ctl) 10 μM (10 μM compound, inhibition of [3H]PGE2 uptake) | Inh (% of Ctl) 0.5 μM (inhibition of [3H]PGE2 uptake) | Inh (% of Ctl) 2.5 μM (inhibition of [3H]PGE2 uptake) | Inh (% of Ctl) 0.1 μM (inhibition of [3H]PGE2 uptake) | IC50
O=C(CCCCCCNc1nc(Nc2ccccc2)nc(Nc2ccc(O)cc2)n1)NCc1ccccc1 [compound 97] | 13.1 % of Ctl | 19.4 % of Ctl | 30.8 % of Ctl |  |  |  | 
O=C(NCCOCCNc1nc(Nc2ccc(O)cc2)nc(Nc2ccc(C(=O)NCc3ccc(Cl)cc3)cc2)n1)c1ccccc1 [compound 98] |  | 75.1 % of Ctl |  | 6.7 % of Ctl | 24.9 % of Ctl |  | 
O=C(NCCOCCOCCNc1nc(Nc2ccc(O)cc2)nc(Nc2ccc(C(=O)NCc3ccc(F)cc3)cc2)n1)c1ccccc1 [compound 99] |  | 89.4 % of Ctl |  | 61.8 % of Ctl | 77.1 % of Ctl | 81.3 % of Ctl | 23.7 nM
O=C(NCCOCCOCCNc1nc(Nc2ccc(O)cc2)nc(Nc2ccc(C(=O)NCc3ccc(Cl)cc3Cl)cc2)n1)c1ccccc1 [compound 100] |  | 86.0 % of Ctl |  | 56.4 % of Ctl | 57.6 % of Ctl | 41.1 % of Ctl | 
O=C(NCCOCCOCCNc1nc(Nc2ccc(O)cc2)nc(Nc2ccc(C(=O)NCc3cccc(C(F)(F)F)c3)cc2)n1)c1ccccc1 [compound 101] |  | 91.4 % of Ctl |  | 54.0 % of Ctl | 71.0 % of Ctl | 47.4 % of Ctl | 
Cc1ccc(CNC(=O)c2ccc(Nc3nc(NCCOCCOCCNC(=O)c4ccccc4)nc(Nc4ccc(O)cc4)n3)cc2)cc1 [compound 102] |  | 88.0 % of Ctl |  | 41.9 % of Ctl | 65.7 % of Ctl |  | 
O=C(NCCOCCOCCNc1nc(Nc2ccc(O)cc2)nc(Nc2ccc(C(=O)Nc3ccccc3)cc2)n1)c1ccccc1 [compound 103] |  | 83.7 % of Ctl |  | 38.3 % of Ctl | 62.2 % of Ctl |  | 
O=C(NCCOCCOCCNc1nc(Nc2ccc(O)cc2)nc(Nc2ccc(C(=O)NCc3ccc(Cl)c(Cl)c3)cc2)n1)c1ccccc1 [compound 104] |  | 91.6 % of Ctl |  | 61.6 % of Ctl | 87.8 % of Ctl | 46.6 % of Ctl | 
O=C(NCCOCCOCCNc1nc(Nc2ccc(O)cc2)nc(Nc2ccc(C(=O)NCc3cccc(F)c3)cc2)n1)c1ccccc1 [compound 105] |  | 92.45 % of Ctl |  | 64.6 % of Ctl | 81 % of Ctl | 67.9 % of Ctl | 47.5 nM
O=C(NCCOCCOCCNc1nc(Nc2ccc(O)cc2)nc(Nc2ccc(C(=O)NCc3ccccc3Cl)cc2)n1)c1ccccc1 [compound 106] |  | 93.1 % of Ctl |  | 64.8 % of Ctl | 68.8 % of Ctl | 68.4 % of Ctl | 
Cc1cccc(CNC(=O)c2ccc(Nc3nc(NCCOCCOCCNC(=O)c4ccccc4)nc(Nc4ccc(O)cc4)n3)cc2)c1 [compound 107] |  | 91.3 % of Ctl |  | 56.3 % of Ctl | 80.7 % of Ctl | 65.2 % of Ctl | 
O=C(NCCOCCOCCNc1nc(Nc2ccc(O)cc2)nc(Nc2ccc(C(=O)NCc3cc(Cl)cc(Cl)c3)cc2)n1)c1ccccc1 [compound 108] |  | 76.6 % of Ctl |  | 60.8 % of Ctl | 78.3 % of Ctl | 70.3 % of Ctl | 
O=C(NCCOCCOCCNc1nc(Nc2ccc(O)cc2)nc(Nc2ccc(C(=O)NCc3ccc(Br)cc3)cc2)n1)c1ccccc1 [compound 109] |  | 85.1 % of Ctl |  | 55.6 % of Ctl | 59.8 % of Ctl | 49.5 % of Ctl | 
O=C(NCCOCCOCCNc1nc(Nc2ccc(O)cc2)nc(Nc2ccc(C(=O)NCc3ccccc3F)cc2)n1)c1ccccc1 [compound 110] |  | 93.6 % of Ctl |  | 60.6 % of Ctl | 78.3 % of Ctl | 69.6 % of Ctl | 31.3 nM
O=C(NCCOCCOCCNc1nc(Nc2ccc(O)cc2)nc(Nc2ccc(C(=O)NCCc3ccccc3)cc2)n1)c1ccccc1 [compound 111] |  | 93.2 % of Ctl |  | 59.1 % of Ctl | 81.5 % of Ctl | 52.2 % of Ctl | 
O=C(O)c1ccc(CNC(=O)c2ccc(Nc3nc(NCCOCCOCCNC(=O)c4ccccc4)nc(Nc4ccc(O)cc4)n3)cc2)cc1 [compound 112] |  | 49.4 % of Ctl |  | 17.5 % of Ctl | 32.2 % of Ctl |  | 
O=C(NCCOCCOCCNc1nc(Nc2ccc(O)cc2)nc(Nc2ccc(C(=O)NCc3ccc(C(F)(F)F)cc3)cc2)n1)c1ccccc1 [compound 113] |  | 92.4 % of Ctl |  | 49.2 % of Ctl | 84.1 % of Ctl | 36.8 % of Ctl | 
COC(=O)c1ccc(CNC(=O)c2ccc(Nc3nc(NCCOCCOCCNC(=O)c4ccccc4)nc(Nc4ccc(O)cc4)n3)cc2)cc1 [compound 114] |  |  |  | 61.4 % of Ctl |  | 41.0 % of Ctl | 
O=C(NCCOCCOCCNc1nc(Nc2ccc(O)cc2)nc(Nc2ccc(C(=O)NCC3CCCCC3)cc2)n1)c1ccccc1 [compound 115] |  |  |  | 76.8 % of Ctl |  | 54.4 % of Ctl | 
O=C(NCCOCCOCCNc1nc(Nc2ccccc2)nc(Nc2ccc(C(=O)NCc3ccccc3)cc2)n1)c1ccccc1 [compound 116] |  |  |  | 59.4 % of Ctl |  | 36.4 % of Ctl | 
COC(=O)c1ccc(CNc2nc(NCCOCCOCCNC(=O)c3ccccc3)nc(Nc3ccc(C(=O)NCc4ccccc4)cc3)n2)cc1 [compound 117] |  |  |  | 36.7 % of Ctl |  | 8.1 % of Ctl | 
O=C(NCCOCCNc1nc(Nc2ccc(O)cc2)nc(Nc2ccc(C(=O)NCc3ccccc3)cc2)n1)c1ccccc1 [compound 118] |  |  |  | 90.7 % of Ctl |  | 74.2 % of Ctl | 20.9 nM
